pIC50, pKi: −log10 of the molar value.

Consider five molecules from paper PMC6017447, “Novel 6- and 7-Substituted Coumarins with Inhibitory Action against Lipoxygenase and Tumor-Associated Carbonic Anhydrase IX” (Molecules : A Journal of Synthetic Chemistry and Natural …, 2018).

The target of one data set is hCA IV (Homo sapiens, UniProt P22748). Briefly: stopped flow CO2 hydrase assay, hCA IV.
The target in data set [1] is T1, soybean lipoxygenase (LOX) (Glycine max, UniProt P08170).
T1 construct: purchased Sigma Chemical, Co. (St. Louis, MO, USA)
T1 sequence (P08170 1-839): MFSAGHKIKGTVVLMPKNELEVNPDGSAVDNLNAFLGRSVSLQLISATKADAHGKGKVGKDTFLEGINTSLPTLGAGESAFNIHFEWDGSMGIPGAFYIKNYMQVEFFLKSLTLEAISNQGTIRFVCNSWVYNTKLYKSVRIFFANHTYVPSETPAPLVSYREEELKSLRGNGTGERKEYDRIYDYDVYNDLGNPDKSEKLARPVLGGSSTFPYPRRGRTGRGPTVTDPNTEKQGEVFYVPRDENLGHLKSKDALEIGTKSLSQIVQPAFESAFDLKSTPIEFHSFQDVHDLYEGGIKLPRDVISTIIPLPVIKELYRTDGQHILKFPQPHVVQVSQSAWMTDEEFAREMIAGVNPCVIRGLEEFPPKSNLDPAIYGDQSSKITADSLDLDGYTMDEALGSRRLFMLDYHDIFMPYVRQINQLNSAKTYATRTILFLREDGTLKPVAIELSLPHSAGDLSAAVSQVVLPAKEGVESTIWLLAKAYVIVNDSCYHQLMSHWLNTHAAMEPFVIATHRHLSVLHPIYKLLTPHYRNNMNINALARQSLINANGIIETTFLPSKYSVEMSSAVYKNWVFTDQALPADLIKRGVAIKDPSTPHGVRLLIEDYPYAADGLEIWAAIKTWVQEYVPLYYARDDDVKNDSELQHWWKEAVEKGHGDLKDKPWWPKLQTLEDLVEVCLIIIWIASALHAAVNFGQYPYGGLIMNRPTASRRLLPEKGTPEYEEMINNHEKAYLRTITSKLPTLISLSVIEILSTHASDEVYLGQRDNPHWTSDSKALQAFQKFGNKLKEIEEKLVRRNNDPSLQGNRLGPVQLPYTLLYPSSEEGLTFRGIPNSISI
On the set-up: method as in doi:10.1007/s00044-017-1800-6. To be noted: 100 μM compound; footnote d; cited from earlier work.

The next data set concerns the target hCA II (Homo sapiens, UniProt P00918). Kind of data set: stopped flow CO2 hydrase assay, hCA II.
For another data set, the target named is hCA IX (Homo sapiens, UniProt Q16790). Briefly: stopped flow CO2 hydrase assay, hCA IX.
For a further data set, the target named is hCA I (Homo sapiens, UniProt P00915). Kind of data set: stopped flow CO2 hydrase assay, hCA I.
For data set [2], the target named is T1, soybean lipoxygenase (LOX). Kind of data set: in vitro inhibition of soybean lipoxygenase, UV absorbance based enzyme assay. The format is biochemical. The settings on record: sodium linoleate 0.1 mM, pH 9. On the procedure: Most of the LOX inhibitors are antioxidants or free radical scavengers. LOXs contain a non-heme iron per molecule in the enzyme active site as high-spin Fe^2+ in the native state and the high spin Fe^3+ in the activated state.
A DMSO solution of the tested compound was incubated with sodium linoleate (0.1 mM) and 0.2 mL of soybean LOX solution (1/9 × 10^−4 w/v in saline) in buffer pH 9 (tris) and at room temperature.

Chain of hCA I (P00915 whole entry): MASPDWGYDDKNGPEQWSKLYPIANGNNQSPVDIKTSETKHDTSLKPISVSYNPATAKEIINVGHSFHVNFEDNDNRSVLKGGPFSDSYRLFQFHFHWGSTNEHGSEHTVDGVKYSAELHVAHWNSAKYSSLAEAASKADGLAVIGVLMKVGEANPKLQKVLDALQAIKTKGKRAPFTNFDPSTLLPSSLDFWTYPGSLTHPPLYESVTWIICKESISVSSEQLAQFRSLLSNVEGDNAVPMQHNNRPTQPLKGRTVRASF
Chain of hCA IV (P22748 19-312): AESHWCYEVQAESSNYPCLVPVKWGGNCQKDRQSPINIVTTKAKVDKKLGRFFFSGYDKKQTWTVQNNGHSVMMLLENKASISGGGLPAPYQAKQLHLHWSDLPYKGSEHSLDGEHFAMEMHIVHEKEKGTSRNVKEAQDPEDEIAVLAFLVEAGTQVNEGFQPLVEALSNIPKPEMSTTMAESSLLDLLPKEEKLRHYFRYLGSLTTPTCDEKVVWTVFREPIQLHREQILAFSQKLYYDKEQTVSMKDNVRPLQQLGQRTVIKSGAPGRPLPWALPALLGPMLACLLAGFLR
Description for hCA II: (§1) An Applied Photophysics (Oxford, UK) stopped-flow instrument has been used for assaying the CA catalysed CO2 hydration activity [36]. […] The uncatalyzed rates were determined in the same manner and subtracted from the total observed rates. Stock solutions of inhibitor (0.1 mM) were prepared in distilled-deionized water and dilutions up to 0.01 nM were done thereafter with distilled-deionized water. […] The inhibition constants were obtained by non-linear least-squares methods using PRISM 3, as reported earlier [42, 43, 44, 45, 46, 47, 48, 49, 50] and represent the mean from at least three different determinations. The four CA isoforms were recombinant proteins obtained as reported earlier in our laboratory [42, 43, 44, 45, 46, 47, 48, 49, 50].
Description for hCA IV: as §1
Description for hCA IX: as §1

The term pKi denotes −log10 of the Ki, conventionally taken in molar units. High values mean a low Ki, low ones a high Ki. With `O=C(O)COc1ccc2oc(=O)ccc2c1` [Compound 3b, 2-((2-Oxo-2H-chromen-6-yl)oxy)acetic acid], the pKi at hCA IV was under 5.00; on hCA II, under 5.00; on hCA IX, 6.71; at hCA I, under 5.00. Also, the “% LOX Inhibition at 100 Μμ” value in data set [1] is 50%.

For orientation: melting point means the temperature of the solid-liquid transition. Regarding `CCOC(=O)COc1ccc2oc(=O)ccc2c1` [Compound 2b, Ethyl 2-((2-oxo-2H-chromen-6-yl)oxy)acetate], the melting point was in the range of 120 to 122 °C. Besides, the pKi on hCA IV was under 5.00. For the same molecule, the “% LOX Inhibition at 100 Μμ” value in data set [1] is given as 41%. The molecule further gave a pKi at hCA II of under 5.00. Further, on hCA IX, the pKi is 5.69. The pKi at hCA I is under 5.00.

In turn, `CCOC(=O)COc1ccc2ccc(=O)oc2c1` [Compound 2a, Ethyl 2-((2-oxo-2H-chromen-7-yl)oxy)acetate] registered a melting point of 112.9 to 113 °C. Also, the pKi on hCA IV is 5.25. The “% LOX Inhibition at 100 Μμ” value in data set [1] was 16%. In addition, at hCA II, the pKi was under 5.00. Further, the negative-log Ki (pKi) at hCA IX is 6.61. The negative logarithm of the Ki (pKi) on hCA I is under 5.00.

One may read the inhibition as the share of the control response that was lost under treatment. As a reminder, the pIC50 is the negative decadic logarithm of the IC50, by convention in mol/L. Higher therefore signals a low IC50. With `O=C(COc1ccc2ccc(=O)oc2c1)NCCc1ccccc1` [Compound 4a, 2-((2-Oxo-2H-chromen-7-yl)oxy)-N-phenethylacetamide], the melting point lay within 178 to 179 °C. The negative-log Ki (pKi) on hCA IV was under 5.00. For the same molecule, the inhibition at 100 µM in data set [2] (100 μM compound, read-out: % LOX Inhibition at 100 Μμ) turned out to be 96%. In addition, the pIC50 in data set [2] is 5.00. Also, at hCA II, the pKi was under 5.00. The pKi at hCA IX is 6.78. At hCA I, this molecule showed a pKi of under 5.00.

`O=C(O)COc1ccc2ccc(=O)oc2c1` [Compound 3a, 2-((2-Oxo-2H-chromen-7-yl)oxy)acetic acid]: the pKi at hCA IV was 5.07; on hCA II it was under 5.00; at hCA IX, 6.54; at hCA I it was under 5.00. In addition, the “% LOX Inhibition at 100 Μμ” value in data set [1] is 50%.
